# The source made the active and inactive calls. The rule behind the calls is not given here.
# What was measured:
# MV4-11 [1] = assay: Antiproliferative activity against human MV4-11 cells incubated for 120 hrs by Cell-Titer Glo assay; conditions: MV4-11, 120 h
# [2] = target: Protein cereblon/Histone acetyltransferase p300 (Homo sapiens) (UniProt Q09472+Q96SW2); assay: PROTAC activity at CRBN/p300 in human MV4-11 cells assessed as p300 degradation at 10 to 50 nM incubated for 24 hrs by Western blotting analysis; type: cell-based; conditions: dose 10-50 nM
# Chain of Protein cereblon/Histone acetyltransferase p300 (Homo sapiens) (Q09472 2-2414 limits assumed): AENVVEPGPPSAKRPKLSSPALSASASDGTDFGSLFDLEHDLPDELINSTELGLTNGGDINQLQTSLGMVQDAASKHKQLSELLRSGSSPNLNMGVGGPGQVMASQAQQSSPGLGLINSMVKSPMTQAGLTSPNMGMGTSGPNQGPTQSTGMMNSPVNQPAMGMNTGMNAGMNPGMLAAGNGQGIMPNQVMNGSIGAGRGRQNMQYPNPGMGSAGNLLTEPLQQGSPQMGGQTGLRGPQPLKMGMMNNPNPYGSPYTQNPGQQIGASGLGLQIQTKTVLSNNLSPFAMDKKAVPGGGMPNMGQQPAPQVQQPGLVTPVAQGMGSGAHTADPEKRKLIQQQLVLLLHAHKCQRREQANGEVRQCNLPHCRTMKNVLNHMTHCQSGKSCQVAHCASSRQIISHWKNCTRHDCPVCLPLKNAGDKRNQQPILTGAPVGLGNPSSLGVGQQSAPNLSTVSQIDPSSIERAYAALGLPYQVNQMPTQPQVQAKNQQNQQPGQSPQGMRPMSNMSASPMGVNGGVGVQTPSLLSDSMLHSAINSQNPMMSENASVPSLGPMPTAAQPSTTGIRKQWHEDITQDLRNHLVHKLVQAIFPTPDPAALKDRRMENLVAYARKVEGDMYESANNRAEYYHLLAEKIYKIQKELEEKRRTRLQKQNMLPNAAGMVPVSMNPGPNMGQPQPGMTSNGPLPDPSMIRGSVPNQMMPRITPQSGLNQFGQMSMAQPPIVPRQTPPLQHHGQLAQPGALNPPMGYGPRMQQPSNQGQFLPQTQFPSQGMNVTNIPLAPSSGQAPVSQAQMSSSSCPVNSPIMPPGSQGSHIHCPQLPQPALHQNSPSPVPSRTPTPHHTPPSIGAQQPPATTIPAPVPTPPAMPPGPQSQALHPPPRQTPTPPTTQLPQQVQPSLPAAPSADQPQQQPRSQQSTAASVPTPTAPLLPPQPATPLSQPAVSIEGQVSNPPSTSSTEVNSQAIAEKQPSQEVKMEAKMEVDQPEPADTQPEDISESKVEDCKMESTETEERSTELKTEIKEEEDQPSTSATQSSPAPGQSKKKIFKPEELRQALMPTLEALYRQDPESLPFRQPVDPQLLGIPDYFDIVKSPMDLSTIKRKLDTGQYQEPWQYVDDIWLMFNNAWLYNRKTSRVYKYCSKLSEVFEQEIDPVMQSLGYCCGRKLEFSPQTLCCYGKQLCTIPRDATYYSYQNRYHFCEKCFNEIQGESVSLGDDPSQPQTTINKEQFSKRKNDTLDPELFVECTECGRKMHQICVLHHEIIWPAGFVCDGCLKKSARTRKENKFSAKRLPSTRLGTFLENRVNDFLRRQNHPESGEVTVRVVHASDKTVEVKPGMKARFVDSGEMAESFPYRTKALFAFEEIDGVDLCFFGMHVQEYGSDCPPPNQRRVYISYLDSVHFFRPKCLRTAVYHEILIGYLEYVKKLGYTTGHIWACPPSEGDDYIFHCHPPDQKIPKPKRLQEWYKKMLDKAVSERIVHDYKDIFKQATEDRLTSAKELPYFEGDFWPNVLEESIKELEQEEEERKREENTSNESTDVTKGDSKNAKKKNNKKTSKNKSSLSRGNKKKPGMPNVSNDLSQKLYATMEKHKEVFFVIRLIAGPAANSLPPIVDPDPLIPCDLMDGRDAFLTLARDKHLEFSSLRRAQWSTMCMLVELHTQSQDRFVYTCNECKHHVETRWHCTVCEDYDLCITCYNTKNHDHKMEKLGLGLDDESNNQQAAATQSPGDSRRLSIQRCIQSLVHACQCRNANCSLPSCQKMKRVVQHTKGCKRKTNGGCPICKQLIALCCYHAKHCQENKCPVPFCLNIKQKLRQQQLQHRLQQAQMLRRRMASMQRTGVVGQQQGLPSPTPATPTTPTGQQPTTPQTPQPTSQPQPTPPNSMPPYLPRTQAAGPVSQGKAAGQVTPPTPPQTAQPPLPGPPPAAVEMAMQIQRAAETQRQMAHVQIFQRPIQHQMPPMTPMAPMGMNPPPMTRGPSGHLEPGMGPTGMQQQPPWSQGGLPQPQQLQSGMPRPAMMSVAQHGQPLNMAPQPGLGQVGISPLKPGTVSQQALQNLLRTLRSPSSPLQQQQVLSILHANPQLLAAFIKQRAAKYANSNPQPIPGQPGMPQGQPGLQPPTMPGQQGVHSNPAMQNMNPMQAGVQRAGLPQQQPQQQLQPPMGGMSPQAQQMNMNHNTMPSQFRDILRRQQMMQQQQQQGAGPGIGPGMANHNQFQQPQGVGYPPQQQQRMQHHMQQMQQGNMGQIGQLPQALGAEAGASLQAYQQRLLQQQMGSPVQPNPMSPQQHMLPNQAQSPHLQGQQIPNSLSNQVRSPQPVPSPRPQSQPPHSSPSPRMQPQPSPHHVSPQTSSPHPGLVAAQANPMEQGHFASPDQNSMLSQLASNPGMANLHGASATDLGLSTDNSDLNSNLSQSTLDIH
# Chain of Protein cereblon/Histone acetyltransferase p300 (Homo sapiens) (Q96SW2 whole entry partner): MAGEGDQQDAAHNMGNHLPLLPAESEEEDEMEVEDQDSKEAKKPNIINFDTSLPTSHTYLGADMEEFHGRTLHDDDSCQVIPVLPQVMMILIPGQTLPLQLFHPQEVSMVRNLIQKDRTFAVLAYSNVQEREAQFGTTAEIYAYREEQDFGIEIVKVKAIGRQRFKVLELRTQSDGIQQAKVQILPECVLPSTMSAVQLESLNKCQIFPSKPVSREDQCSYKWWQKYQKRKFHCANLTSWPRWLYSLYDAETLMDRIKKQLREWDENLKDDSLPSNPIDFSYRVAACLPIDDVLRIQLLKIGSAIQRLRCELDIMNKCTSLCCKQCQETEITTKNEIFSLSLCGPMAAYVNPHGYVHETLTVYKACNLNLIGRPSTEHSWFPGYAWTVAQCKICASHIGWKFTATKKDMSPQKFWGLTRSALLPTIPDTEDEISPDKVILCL
# [3] = Antiproliferative activity against human MOLM16 cells incubated for 72 hrs by Cell-Titer Glo assay; conditions: MOLM16, 72 h
# MOLM-13 [4] = assay: Antiproliferative activity against human MOLM-13 cells incubated for 72 hrs by Cell-Titer Glo assay; conditions: MOLM-13, 72 h
# MV4-11 [5] = assay: Downregulation of c-Myc protein level in human MV4-11 cells at 50 nM incubated for 24 hrs by Western blotting analysis; type: functional, cell-based
# MOLM-13 [6] = assay: Downregulation of c-Myc protein level in human MOLM-13 cells at 50 nM incubated for 24 hrs by Western blotting analysis; type: functional, cell-based
# MOLM-16 = assay: Downregulation of c-Myc protein level in human MOLM16 cells at 50 nM incubated for 24 hrs by Western blotting analysis; type: functional, cell-based
Structure (SMILES),IC50 (MV4-11 [1]) [nM],Activity [2],IC50 (MOLM-13 [4]) [nM],IC50 [3] [nM],Activity (MV4-11 [5]),Activity (MOLM-13 [6]),Activity (MOLM-16)
Cc1noc(C)c1-c1ccc2c(c1)nc([C@@H]1CCCC(=O)N1c1ccc(F)c(F)c1)n2C1CCN(CC(=O)Nc2ccc(-c3ccc(CNc4cccc5c4C(=O)N(C4CCC(=O)N(C)C4=O)C5=O)cc3)nc2)CC1 (stereo not given in full),86.7,–,> 1000,200,–,–,–
Cc1noc(C)c1-c1ccc2c(c1)nc([C@@H]1CCCC(=O)N1c1ccc(F)c(F)c1)n2C1CCN(CC(=O)Nc2ccc(CCNc3cccc4c3C(=O)N(C3CCC(=O)NC3=O)C4=O)cc2)CC1 (stereo not given in full),132,Active,–,–,–,–,–
Cc1noc(C)c1-c1ccc2c(c1)nc([C@@H]1CCCC(=O)N1c1ccc(F)c(F)c1)n2C1CCN(CC(=O)NCCOCCOCCOCCNc2ccc3c(c2)C(=O)N(C2CCC(=O)NC2=O)C3=O)CC1 (stereo not given in full),> 10000,inactive,–,–,–,–,–
Cc1noc(C)c1-c1ccc2c(c1)nc([C@@H]1CCCC(=O)N1c1ccc(F)c(F)c1)n2C1CCN(CC(=O)Nc2ccc(CNc3cccc4c3C(=O)N(C3CCC(=O)NC3=O)C4=O)cc2)CC1 (stereo not given in full),84.8,Active,–,–,–,–,–
Cc1noc(C)c1-c1ccc2c(c1)nc([C@@H]1CCCC(=O)N1c1ccc(F)c(F)c1)n2C1CCN(CC(=O)NCCCNc2ccc3c(c2)C(=O)N(C2CCC(=O)NC2=O)C3=O)CC1 (stereo not given in full),2640,inactive,–,–,–,–,–
Cc1noc(C)c1-c1ccc2c(c1)nc([C@@H]1CCCC(=O)N1c1ccc(F)c(F)c1)n2C1CCN(CC(=O)NCCOCCNc2ccc3c(c2)C(=O)N(C2CCC(=O)NC2=O)C3=O)CC1 (stereo not given in full),1700,inactive,–,–,–,–,–

# Continued, in another order:
IC50 (MV4-11 [1]) [nM],Activity [2],IC50 (MOLM-13 [4]) [nM],Structure (SMILES),IC50 [3] [nM],Activity (MV4-11 [5]),Activity (MOLM-13 [6]),Activity (MOLM-16)
273,Active,–,Cc1noc(C)c1-c1ccc2c(c1)nc([C@@H]1CCCC(=O)N1c1ccc(F)c(F)c1)n2C1CCN(CC(=O)Nc2ccc(CC3CCN(c4cccc5c4C(=O)N(C4CCC(=O)NC4=O)C5=O)CC3)cc2)CC1 (stereo not given in full),–,–,–,–
5.7,–,137,Cc1noc(C)c1-c1ccc2c(c1)nc([C@@H]1CCCC(=O)N1c1ccc(F)c(F)c1)n2C1CCN(CC(=O)Nc2ccc(-c3ccc(CNc4cccc5c4C(=O)N(C4CCC(=O)NC4=O)C5=O)cc3)cc2)CC1 (stereo not given in full),14.4,Active,Active,Active
2210,inactive,–,Cc1noc(C)c1-c1ccc2c(c1)nc([C@@H]1CCCC(=O)N1c1ccc(F)c(F)c1)n2C1CCN(CC(=O)NCCCCNc2ccc3c(c2)C(=O)N(C2CCC(=O)NC2=O)C3=O)CC1 (stereo not given in full),–,–,–,–
1020,inactive,–,Cc1noc(C)c1-c1ccc2c(c1)nc([C@@H]1CCCC(=O)N1c1ccc(F)c(F)c1)n2C1CCN(CC(=O)NCCCCCCNc2ccc3c(c2)C(=O)N(C2CCC(=O)NC2=O)C3=O)CC1 (stereo not given in full),–,–,–,–
